Where “and” joins values, the source holds several entries; their conditions need not be identical. Identical values can stand only once.
Assays:
[1] = biological target: MAPK14 (UniProt Q16539); test: p38-alpha2 Inhibition (E. coli); conditions: concentration not given here
[2] = test system: MAPK14 (OF1 mice); test: P38-mediated TNF-alpha Inhibition (OF1 Mice)
[3] = biological target: MAPK14 (UniProt Q16539)
[4] = biological target: MAPK14 (UniProt Q16539); remark: listed apart in the source
[5] = biological target: EGFR (Human), P00533 [T790M/L858R]; conditions: h1975
[6] = biological target: EGFR (human) (UniProt P00533); conditions: a431
[7] = biological target: CDK2 (human) (UniProt P24941); test: Enzyme Assay
[8] = biological target: CDK2 (human) (UniProt P24941); test: Enzyme Assay; remark: listed apart in the source
[9] = biological target: PIK3CG (human) (UniProt P48736); test: Enzyme Assay
[10] = biological target: CDK2 (human) (UniProt P24941); test: Enzyme Assay; remark: listed apart in the source
[11] = biological target: PIK3CA (human) (UniProt P42336); test: Enzyme Assay
[12] = biological target: PIK3CB (Human) (UniProt P42338); test: Enzyme Assay
[13] = biological target: CDK2 (human) (UniProt P24941); test: Enzyme Assay; remark: listed apart in the source
[14] = biological target: EGFR (human) (UniProt P00533); conditions: A431
[15] = biological target: EGFR (UniProt P00533)
[16] = biological target: EGFR (human) (UniProt P00533); conditions: A431 epidermoid carcinoma
[17] = biological target: PIK3CD (Human) (UniProt O00329); test: Cell-Based Assay; conditions: raji
[18] = biological target: PIK3CD (Human) (UniProt O00329); test: Enzyme Assay
[19] = biological target: EGFR (Human), P00533 [T790M/L858R]
[20] = biological target: MAPK14 (UniProt Q16539); test: p38 Inhibition (Phosphorylation of EGF Receptor Peptide)
[21] = test system: MAPK14 (rat); test: p38-alpha Inhibition (Collagen-Induced Arthritis)
[22] = test system: MAPK14 (rat); conditions: dose or concentration not given here
[23] = biological target: MAPK14 (UniProt Q16539); remark: listed apart in the source
[24] = test system: MAPK14 (Lewis rat); test: SCW-induced Arthritis (Lewis Rat)
[25] = biological target: EGFR (human), P00533 [L858R]
[26] = biological target: EGFR (human), P00533 [L861Q]
[27] = biological target: EGFR (human), P00533 [E746-A750del]; conditions: a375
[28] = biological target: EGFR (human), P00533 [G719C]; conditions: a375
[29] = biological target: MAPK14 (human) (UniProt Q16539); test: Enzyme Assay
[30] = biological target: EGFR (UniProt P00533); remark: listed apart in the source
[31] = biological target: EGFR (UniProt P00533); remark: listed apart in the source
[32] = biological target: MAPK14 (UniProt Q16539); test: MAPK14 Binding Inhibition
[33] = biological target: EGFR (UniProt P00533); remark: listed apart in the source
[34] = biological target: MAPK14 (human) (UniProt Q16539); test: TNF-alpha Inhibition (Human Whole Blood); conditions: blood cells
[35] = biological target: MAPK14 (human) (UniProt Q16539); test: TNF-alpha Inhibition (PBMC)
[36] = biological target: MAPK14 (human) (UniProt Q16539); test: p38-mediated IL-1 Inhibition (LPS-Stimulated PBMCs); conditions: pbmc
[37] = biological target: MAPK14 (human) (UniProt Q16539); test: p38-mediated TNF-Inhibition (LPS-Stimulated PBMCs); conditions: pbmc
[38] = biological target: MAPK14 (human) (UniProt Q16539); test: p38 --- IL-1 Inhibition (whole blood cells)
[39] = biological target: MAPK14 (UniProt Q16539); test: p38-mediated EGFR Peptide Phosphorylation Inhibition
[40] = test system: MAPK14 (sprague-dawley rat); test: p38-mediated TNF-alpha Inhibition (Sprauge-Dawley Rats); conditions: dose or concentration not given here
[41] = biological target: MAPK14 (human) (UniProt Q16539); test: p38-mediated TNF-alpha Inhibition (THP1 Cells)
[42] = biological target: MAPK14 (UniProt Q16539); test: p38 Kinase Inhibition
[43] = biological target: MAPK14 (human) (UniProt Q16539); test: MIP-1 Beta Assay (T cells)
[44] = biological target: MAPK14 (human) (UniProt Q16539); test: MIP-1 alpha Assay (T cells)
[45] = biological target: EGFR (human), P00533 [WT]
[46] = biological target: EGFR (Hamster) (UniProt P00533); conditions: er22
[47] = biological target: EGFR (UniProt P00533); remark: listed apart in the source
[48] = biological target: EGFR (UniProt P00533); remark: listed apart in the source
[49] = biological target: EGFR (human) (UniProt P00533); conditions: A431; concentration not given here
[50] = biological target: EGFR (UniProt P00533); remark: listed apart in the source
[51] = biological target: EGFR (human), P00533 [WT]; remark: listed apart in the source
[52] = biological target: PIK3CA (UniProt P42336)
[53] = test system: CDK2 (sprague-dawley rat); conditions: dose or concentration not given here

Chain of MAPK14 (Q16539 whole entry, looked up): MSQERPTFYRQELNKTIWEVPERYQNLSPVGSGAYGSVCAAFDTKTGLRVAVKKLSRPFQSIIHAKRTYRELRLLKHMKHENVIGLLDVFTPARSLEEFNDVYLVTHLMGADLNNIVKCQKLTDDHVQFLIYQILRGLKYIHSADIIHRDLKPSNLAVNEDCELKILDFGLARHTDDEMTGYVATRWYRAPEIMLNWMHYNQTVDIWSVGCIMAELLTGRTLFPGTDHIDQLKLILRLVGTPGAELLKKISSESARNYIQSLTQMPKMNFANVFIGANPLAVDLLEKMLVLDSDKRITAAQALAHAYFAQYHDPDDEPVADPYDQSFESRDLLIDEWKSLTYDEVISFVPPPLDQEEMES
Chain of MAPK14 (human) (Q16539 whole entry, looked up): as above
Chain of EGFR (human) (P00533 whole entry, looked up): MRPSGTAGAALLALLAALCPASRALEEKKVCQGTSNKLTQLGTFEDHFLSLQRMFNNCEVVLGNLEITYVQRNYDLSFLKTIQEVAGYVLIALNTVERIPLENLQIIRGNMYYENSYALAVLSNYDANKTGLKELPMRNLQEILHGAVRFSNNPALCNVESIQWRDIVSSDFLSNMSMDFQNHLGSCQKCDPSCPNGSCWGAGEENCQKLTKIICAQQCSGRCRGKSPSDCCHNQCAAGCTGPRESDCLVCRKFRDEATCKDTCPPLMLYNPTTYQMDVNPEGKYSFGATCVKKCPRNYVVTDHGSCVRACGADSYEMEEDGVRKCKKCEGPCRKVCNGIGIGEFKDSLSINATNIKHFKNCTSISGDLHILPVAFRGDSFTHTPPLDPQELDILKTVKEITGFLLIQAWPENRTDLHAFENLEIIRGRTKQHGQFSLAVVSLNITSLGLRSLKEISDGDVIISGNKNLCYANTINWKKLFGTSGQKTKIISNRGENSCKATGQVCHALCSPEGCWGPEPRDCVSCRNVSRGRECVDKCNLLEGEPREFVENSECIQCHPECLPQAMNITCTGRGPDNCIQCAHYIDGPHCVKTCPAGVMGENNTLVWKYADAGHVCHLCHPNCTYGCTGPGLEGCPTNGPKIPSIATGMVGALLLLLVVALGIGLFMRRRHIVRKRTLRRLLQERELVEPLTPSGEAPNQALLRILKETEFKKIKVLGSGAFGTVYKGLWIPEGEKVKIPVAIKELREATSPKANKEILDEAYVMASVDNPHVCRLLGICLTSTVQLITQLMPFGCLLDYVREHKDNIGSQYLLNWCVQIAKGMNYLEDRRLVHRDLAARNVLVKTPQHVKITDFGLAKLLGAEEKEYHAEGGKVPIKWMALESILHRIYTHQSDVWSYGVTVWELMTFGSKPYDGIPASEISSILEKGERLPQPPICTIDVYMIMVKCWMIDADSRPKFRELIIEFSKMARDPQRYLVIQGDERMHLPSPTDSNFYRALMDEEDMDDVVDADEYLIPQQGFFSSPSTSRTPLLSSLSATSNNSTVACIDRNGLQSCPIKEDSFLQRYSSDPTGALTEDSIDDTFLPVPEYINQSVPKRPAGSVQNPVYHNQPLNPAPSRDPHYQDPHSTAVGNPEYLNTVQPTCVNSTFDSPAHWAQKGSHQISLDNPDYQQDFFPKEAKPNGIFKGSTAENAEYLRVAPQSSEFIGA
Chain of EGFR (P00533 whole entry, looked up): as above
Chain of EGFR (Human), P00533 [T790M/L858R] (P00533 whole entry T790M/L858R, looked up): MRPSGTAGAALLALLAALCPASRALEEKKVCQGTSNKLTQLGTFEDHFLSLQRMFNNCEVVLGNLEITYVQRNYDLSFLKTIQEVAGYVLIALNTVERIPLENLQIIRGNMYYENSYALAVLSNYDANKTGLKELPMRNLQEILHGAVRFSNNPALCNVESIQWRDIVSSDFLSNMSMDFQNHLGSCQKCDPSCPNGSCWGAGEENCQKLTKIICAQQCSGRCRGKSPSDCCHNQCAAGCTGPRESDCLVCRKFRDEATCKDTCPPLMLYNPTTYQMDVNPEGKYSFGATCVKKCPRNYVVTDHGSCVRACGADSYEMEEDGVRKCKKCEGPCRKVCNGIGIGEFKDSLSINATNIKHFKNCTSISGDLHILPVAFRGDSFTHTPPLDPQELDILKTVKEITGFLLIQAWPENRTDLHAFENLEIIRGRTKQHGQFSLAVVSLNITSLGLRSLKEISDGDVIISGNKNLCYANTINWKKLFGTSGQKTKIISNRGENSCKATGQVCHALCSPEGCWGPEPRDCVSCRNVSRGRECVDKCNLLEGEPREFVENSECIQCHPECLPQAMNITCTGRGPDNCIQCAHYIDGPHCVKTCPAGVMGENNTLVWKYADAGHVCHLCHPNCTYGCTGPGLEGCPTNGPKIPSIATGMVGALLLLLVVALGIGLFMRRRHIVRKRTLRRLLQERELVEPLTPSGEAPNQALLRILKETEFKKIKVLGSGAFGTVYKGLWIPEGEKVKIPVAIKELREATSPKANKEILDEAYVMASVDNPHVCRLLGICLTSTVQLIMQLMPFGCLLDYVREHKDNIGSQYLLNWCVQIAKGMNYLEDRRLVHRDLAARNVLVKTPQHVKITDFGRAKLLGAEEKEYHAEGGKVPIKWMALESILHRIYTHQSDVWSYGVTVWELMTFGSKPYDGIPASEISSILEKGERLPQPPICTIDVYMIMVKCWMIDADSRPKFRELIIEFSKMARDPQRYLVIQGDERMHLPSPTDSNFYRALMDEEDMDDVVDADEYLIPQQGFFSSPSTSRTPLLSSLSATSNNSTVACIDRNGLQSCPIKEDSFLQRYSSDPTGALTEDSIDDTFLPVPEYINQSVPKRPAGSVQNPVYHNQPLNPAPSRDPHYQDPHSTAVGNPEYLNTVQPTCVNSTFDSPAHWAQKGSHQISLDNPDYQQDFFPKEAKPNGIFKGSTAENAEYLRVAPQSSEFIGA
Chain of PIK3CB (Human) (P42338 whole entry, looked up): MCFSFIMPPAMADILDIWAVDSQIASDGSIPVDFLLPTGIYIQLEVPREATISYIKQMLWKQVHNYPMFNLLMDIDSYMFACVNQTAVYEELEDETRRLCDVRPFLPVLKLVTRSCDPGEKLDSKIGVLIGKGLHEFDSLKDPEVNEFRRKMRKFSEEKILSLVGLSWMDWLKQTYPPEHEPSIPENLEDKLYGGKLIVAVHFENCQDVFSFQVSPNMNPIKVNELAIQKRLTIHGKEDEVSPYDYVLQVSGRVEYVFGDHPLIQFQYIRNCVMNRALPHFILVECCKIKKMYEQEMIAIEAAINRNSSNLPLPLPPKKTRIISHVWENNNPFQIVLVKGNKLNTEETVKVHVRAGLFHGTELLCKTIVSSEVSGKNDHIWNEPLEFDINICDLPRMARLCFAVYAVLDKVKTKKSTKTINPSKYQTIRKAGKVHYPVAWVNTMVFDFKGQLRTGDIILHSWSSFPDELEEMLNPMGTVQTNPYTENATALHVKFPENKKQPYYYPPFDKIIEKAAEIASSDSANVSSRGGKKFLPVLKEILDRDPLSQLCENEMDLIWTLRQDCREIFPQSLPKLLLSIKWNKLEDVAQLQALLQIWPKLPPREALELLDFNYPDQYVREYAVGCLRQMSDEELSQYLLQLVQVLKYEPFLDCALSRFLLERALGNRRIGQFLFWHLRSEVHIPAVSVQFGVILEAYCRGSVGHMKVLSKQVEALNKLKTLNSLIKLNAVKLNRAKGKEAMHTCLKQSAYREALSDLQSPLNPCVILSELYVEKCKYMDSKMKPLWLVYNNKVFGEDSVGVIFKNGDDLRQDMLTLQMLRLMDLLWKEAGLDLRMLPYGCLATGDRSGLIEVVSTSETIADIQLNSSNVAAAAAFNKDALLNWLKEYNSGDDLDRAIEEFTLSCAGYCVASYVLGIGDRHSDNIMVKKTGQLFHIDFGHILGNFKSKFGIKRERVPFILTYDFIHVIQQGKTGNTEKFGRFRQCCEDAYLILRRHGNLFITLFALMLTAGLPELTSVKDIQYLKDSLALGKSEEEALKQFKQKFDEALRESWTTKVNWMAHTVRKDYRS

COC(=O)c1sc(C(C)(C)C)cc1NC(=O)Nc1ccc(C(N)=O)cc1
inhibition [1]: 23%

CN1CCC(O)(c2nc(-c3ccc(F)cc3)c(-c3ccncc3)s2)CC1
inhibition [2]: 0%

O=C(CN1CCNCC1)Nc1cccc(Oc2nccc(-c3c(-c4ccc(F)cc4)ncn3C3CCNCC3)n2)c1
IC50 [3]: < 50 µM
IC50 [4]: < 50 µM

C=CC(=O)NCCN1C(=O)N(Cc2ccccc2)Cc2cnc(Nc3ccc(N4CCN(C)CC4)cc3OC)nc21
IC50 [5]: > 10 µM

COc1cc2cc3ncc(C#N)c(Nc4ccc(F)c(Cl)c4)c3cc2cc1OC
IC50 [6]: 680 nM

CN1CCN(c2ccc(Nc3ncc4cc(C#N)c(=O)n(C5CCCC5)c4n3)cc2)CC1
IC50 [7]: 1350 nM
IC50 [8]: 770 nM
IC50 [9]: 1120 nM
IC50 [10]: 97.3 nM
IC50 [11]: 1060 nM
IC50 [12]: 759 nM

COc1cc(F)ccc1-c1cc(Nc2cc(CS(C)(=O)=NC#N)ccn2)ncc1F (configuration not stated)
IC50 [13]: 1420 nM
IC50 [10]: 72 nM

Nc1ccc2c(NCc3ccccc3)ncnc2c1
IC50 [14]: 1250 nM

O=C(Nc1cccc(Nc2nccc(-c3cccnc3)n2)c1)c1ccccc1S
IC50 [15]: > 50 µM

Cn1c(SSc2c(C(=O)Nc3ccccc3)c3ccc(C(F)(F)F)cc3n2C)c(C(=O)Nc2ccccc2)c2cc(C(F)(F)F)ccc21
IC50 [16]: > 100 µM

C[C@H](NC(=O)c1c(N)nn2cccnc12)c1cc2cccc(Cl)c2c(=O)n1CCNS(=O)(=O)C(F)(F)F
IC50 [17]: 10 to 100 nM
IC50 [9]: 500 to 1000 nM
IC50 [18]: 1 to 10 µM
IC50 [11]: 1000 to 10000 nM
IC50 [12]: 1000 to 10000 nM

C=CC(=O)Nc1cccc(N2C(=O)N(Cc3ccccc3)Cc3cnc(Nc4ccc(N5CCN(C)CC5)cc4OC)nc32)c1
IC50 [19]: 0.7 nM

O=c1ncn2nc(Sc3ccccc3)ccc2c1-c1ccccc1
IC50 [20]: > 20 µM

CN1CCC(O)(c2nc(-c3ccc(F)cc3)c(-c3ccncc3)o2)CC1
ED50 [21]: 20 mg/kg/day

COc1cc(N)nc2[nH]c(-c3ccc(F)cc3)c(-c3ccncc3)c12
inhibition [22]: 97%
activity [23]: 6 nM

CC1(C(=O)N2CCOCC2)COC(c2nc(-c3ccc(F)cc3)c(-c3ccnc(NC4CC4)n3)[nH]2)OC1 (configuration not stated)
AUC [24]: 2 and 2.1 and 3.3

CN(C)C/C=C/C(=O)Nc1cccc(C(=O)Nc2ccc(Nc3nccc(-c4c(-c5ccccc5)nn5ccccc45)n3)cc2)c1
IC50 [25]: 24.9 nM
IC50 [26]: 21 nM
Kd [27]: 7 nM
Kd [28]: 2.6 nM
IC50 [29]: 63 nM

O=C(O)CCC1C(=S)Nc2ccccc21 (configuration not stated)
IC50 [30]: > 1620 nM

O=C(Nc1cc2ccccc2cn1)c1ccccc1NCc1ccncc1
IC50 [31]: > 10 µM

COc1cc(-c2c(-c3ccc(F)cc3)ncn2C2CCNCC2)ccn1
IC50 [32]: < 50 µM

COc1cc2ncc(C#N)c(Nc3cc(OC)c(OC)c(OC)c3)c2cc1OC
IC50 [33]: 1500 nM

C[C@H](Nc1nccc(-c2cc(N3CCOCC3)nnc2-c2cccc(C(F)(F)F)c2)n1)c1ccccc1
IC50 [34]: 1200 nM
IC50 [35]: 292 nM

O=C1NCN2N=C(Sc3ccccc3Br)C=CC2=C1c1c(Cl)cccc1Cl
IC50 [36]: 240 nM
IC50 [37]: 160 nM

O=c1ncn2nc(Sc3ccccc3)ccc2c1-c1c(Cl)cccc1Cl
IC50 [38]: 3000 nM
IC50 [39]: 1300 nM

Nc1c(C(=O)c2cccc(NC=NO)c2)cnn1-c1ccc(F)cc1
inhibition [40]: 76%
IC50 [41]: 170 nM
IC50 [42]: 1450 nM

CC(=NNC(=N)N)c1cc(NC(=O)CCCCCCCCC(=O)Nc2cc(C(C)=NNC(=N)N)cc(C(C)=NNC(=N)N)c2)cc(C(C)=NNC(=N)N)c1
expression [43]: 3800 pg/mL and 10400 pg/mL
expression [44]: 10500 pg/mL and 5700 pg/mL

COc1cccc(Nc2ccnc(Nc3cccc(OC)c3)n2)c1
IC50 [45]: 7.7 µM

COC(=O)c1cc(NCc2cc(O)ccc2O)ccc1O
IC50 [46]: 9 µM

CC[C@@H]1CC(=O)c2c(cc(O)c3c2C(=O)c2cccc(OC)c2C3=O)C1
IC50 [47]: 2110 nM

O=C(O)c1cc(/C=C/c2cc(O)ccc2O)ccc1O
IC50 [48]: 2000 nM

Oc1cccc(-c2nc3ccc(O)cc3s2)c1
inhibition [49]: 4%

CO[C@H]1[C@@H](N(C)C2C=NC=CN2)C[C@@H]2O[C@@]1(C)n1c3ccccc3c3c4c(c5c6ccccc6n2c5c31)C(=O)NC4 (some centres not stated)
IC50 [50]: 8.18 µM

COc1cc(N2CCN(C(C)=O)CC2)ccc1Nc1ncc(Cl)c(-c2c[nH]c3ccccc23)n1
IC50 [51]: 79 nM

O=c1c(O)c(-c2ccc(O)c(O)c2)oc2cc(O)cc(O)c12
IC50 [52]: 3.8 µM

CN1CC[C@@H](c2c(O)cc(O)c3c(=O)cc(-c4ccccc4Cl)oc23)[C@@H](O)C1
response [53]: 4.2%

— the Kinase Knowledgebase extract (Sharma et al. 2016)
